Literature values in patent US5605915A, “Acetylenes disubstituted with a 5 substituted tetrahydronaphthyl group and with an aryl or heteroaryl group having retinoid-like biological activity” (Allergan, priority 1996, dated 1997).

Tested on: ornithine decarboxylase (ODC)
Conditions: literature statement

| Compound | effect on ODC activity |
| --- | --- |
| CCCCCCCCCCCCCC(=O)O[C@@H]1[C@@H](C)[C@@]2(O)[C@@H](C=C(CO)C[C@]3(O)C(=O)C(C)=C[C@@H]23)[C@@H]2C(C)(C)[C@]12OC(C)=O [12-0-tetradecanoylphorbol-13-acetate] | induces ODC activity |
| CC1=C(/C=C/C(C)=C/C=C/C(C)=C/C(=O)O)C(C)(C)CCC1 [Retinoic acid] | inhibits this induction of ODC activity by TPA |
